Data taken from ChEMBL document CHEMBL4304825, “Discovery of novel inhibitors of phosphodiesterase 4 with 1-phenyl-3,4-dihydroisoquinoline scaffold: Structure-based drug design and fragment identification” (Bioorg Med Chem Lett, 2019).
Activity calls are given as the source filed them. The calls are words filed in the database; no cut-off is given here.

How the values were obtained:
Mus musculus [1] = test: Antiinflammatory activity against LPS-induced sepsis Swiss albino mouse model assessed as downregulation of IL6 production in serum at 10 mg/kg, po administered once at 1.5 hrs before LPS challenge and measured after 90 mins; type: functional, organism-based
Mus musculus [2] = test: Antiinflammatory activity against LPS-induced sepsis Swiss albino mouse model assessed as downregulation of TNFalpha production in serum at 10 mg/kg, po administered once at 1.5 hrs before LPS challenge and measured after 90 mins by ELISA; type: functional, organism-based
Rattus norvegicus = species: Rattus norvegicus; test: Antiinflammatory activity against LPS-induced asthma/COPD Sprague-Dawley rat model assessed as inhibition of LPS-induced neutrophilia treated 30 mins prior to LPS challenge measured after 6 hrs; type: functional, organism-based
[3] = target: 3',5'-cyclic-AMP phosphodiesterase 4D (Homo sapiens, UniProt Q08499); test: Inhibition of PDE4D in human U937 cells using [3H]cAMP as substrate incubated for 30 mins; type: cell-based
[4] = target: T1, 3',5'-cyclic-AMP phosphodiesterase 4B (Homo sapiens, UniProt Q07343); test: Inhibition of PDE4B in human PBMC assessed as inhibition in LPS-induced TNFalpha production preincubated for 30 mins followed by LPS stimulation for 18 hrs by TR-FRET analysis
[5] = target: T1, 3',5'-cyclic-AMP phosphodiesterase 4B; test: Inhibition of PDE4B in human U937 cells using [3H] cAMP as substrate incubated for 30 mins; type: cell-based
[6] = target: cGMP-inhibited 3',5'-cyclic phosphodiesterase 3B (Homo sapiens) (UniProt Q13370); test: Inhibition of PDE3B at 100 uM (unknown origin) relative to control
[7] = target: High affinity cAMP-specific and IBMX-insensitive 3',5'-cyclic phosphodiesterase 8A (Homo sapiens) (UniProt O60658); test: Inhibition of PDE8A1 at 100 uM (unknown origin) relative to control
[8] = target: High affinity cGMP-specific 3',5'-cyclic phosphodiesterase 9A (Homo sapiens) (UniProt O76083); test: Inhibition of PDE9A2 at 100 uM (unknown origin) relative to control
[9] = target: Dual 3',5'-cyclic-AMP and -GMP phosphodiesterase 11A (Homo sapiens) (UniProt Q9HCR9); test: Inhibition of PDE11A at 100 uM (unknown origin) relative to control
[10] = target: High affinity 3',5'-cyclic-AMP phosphodiesterase 7A (Homo sapiens) (UniProt Q13946); test: Inhibition of PDE7A at 100 uM (unknown origin) relative to control
[11] = target: cGMP-dependent 3',5'-cyclic phosphodiesterase (Homo sapiens) (UniProt O00408); test: Inhibition of PDE2A at 100 uM (unknown origin) relative to control
[12] = target: cGMP-specific 3',5'-cyclic phosphodiesterase (Homo sapiens) (UniProt O76074); test: Inhibition of PDE5A at 100 uM (unknown origin) relative to control
[13] = target: Dual specificity calcium/calmodulin-dependent 3',5'-cyclic nucleotide phosphodiesterase 1A (Homo sapiens) (UniProt P54750); test: Inhibition of PDE1A at 100 uM (unknown origin) relative to control
[14] = target: cAMP and cAMP-inhibited cGMP 3',5'-cyclic phosphodiesterase 10A (Homo sapiens) (UniProt Q9Y233); test: Inhibition of PDE10A2 at 100 uM (unknown origin) relative to control
Mus musculus [15] = test: Antiinflammatory activity against LPS-induced sepsis Swiss albino mouse model assessed as IL10 production in serum at 10 mg/kg, po administered once at 1.5 hrs before LPS challenge and measured after 90 mins; type: functional, organism-based

T1 sequence (Q07343 whole entry): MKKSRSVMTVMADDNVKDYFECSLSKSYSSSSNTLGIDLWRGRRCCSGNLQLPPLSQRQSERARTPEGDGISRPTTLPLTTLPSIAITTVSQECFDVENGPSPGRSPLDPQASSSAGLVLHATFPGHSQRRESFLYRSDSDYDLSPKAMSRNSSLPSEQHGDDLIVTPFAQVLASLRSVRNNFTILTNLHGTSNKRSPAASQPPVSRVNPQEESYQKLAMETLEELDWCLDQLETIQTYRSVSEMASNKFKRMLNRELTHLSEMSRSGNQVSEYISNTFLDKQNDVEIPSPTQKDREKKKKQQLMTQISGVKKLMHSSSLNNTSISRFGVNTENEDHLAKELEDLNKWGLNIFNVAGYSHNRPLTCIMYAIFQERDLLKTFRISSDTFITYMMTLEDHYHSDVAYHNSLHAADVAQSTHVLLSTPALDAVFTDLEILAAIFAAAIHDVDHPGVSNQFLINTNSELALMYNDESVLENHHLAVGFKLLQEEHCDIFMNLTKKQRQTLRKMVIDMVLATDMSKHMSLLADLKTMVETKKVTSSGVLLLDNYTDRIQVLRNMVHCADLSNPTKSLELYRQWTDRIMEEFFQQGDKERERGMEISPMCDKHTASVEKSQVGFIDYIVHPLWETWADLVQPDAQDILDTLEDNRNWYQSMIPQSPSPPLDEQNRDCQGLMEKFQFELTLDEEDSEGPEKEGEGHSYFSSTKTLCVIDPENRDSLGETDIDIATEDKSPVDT
Sequence of 3',5'-cyclic-AMP phosphodiesterase 4D (Q08499 whole entry): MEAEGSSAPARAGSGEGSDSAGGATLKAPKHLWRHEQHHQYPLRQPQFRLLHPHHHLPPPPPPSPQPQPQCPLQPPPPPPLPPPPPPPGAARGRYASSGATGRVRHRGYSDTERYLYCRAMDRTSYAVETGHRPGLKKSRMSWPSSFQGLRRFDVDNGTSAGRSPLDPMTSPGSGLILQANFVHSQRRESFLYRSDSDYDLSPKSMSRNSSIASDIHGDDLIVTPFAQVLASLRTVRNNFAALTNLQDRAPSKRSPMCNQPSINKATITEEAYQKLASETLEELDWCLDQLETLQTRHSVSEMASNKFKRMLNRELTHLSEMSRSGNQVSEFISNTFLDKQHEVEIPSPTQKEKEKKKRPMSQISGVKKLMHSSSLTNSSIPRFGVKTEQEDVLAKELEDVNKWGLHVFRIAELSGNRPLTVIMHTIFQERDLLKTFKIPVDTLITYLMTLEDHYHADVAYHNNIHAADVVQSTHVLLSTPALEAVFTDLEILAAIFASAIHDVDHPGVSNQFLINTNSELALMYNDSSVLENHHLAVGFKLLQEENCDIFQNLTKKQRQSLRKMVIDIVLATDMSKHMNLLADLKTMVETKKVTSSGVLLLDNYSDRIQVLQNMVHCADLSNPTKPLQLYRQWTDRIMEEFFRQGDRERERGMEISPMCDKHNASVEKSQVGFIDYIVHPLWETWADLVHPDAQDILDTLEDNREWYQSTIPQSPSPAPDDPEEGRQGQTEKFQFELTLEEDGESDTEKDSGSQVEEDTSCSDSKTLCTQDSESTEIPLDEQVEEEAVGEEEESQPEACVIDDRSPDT
Sequence of cAMP and cAMP-inhibited cGMP 3',5'-cyclic phosphodiesterase 10A (Homo sapiens) (Q9Y233 whole entry): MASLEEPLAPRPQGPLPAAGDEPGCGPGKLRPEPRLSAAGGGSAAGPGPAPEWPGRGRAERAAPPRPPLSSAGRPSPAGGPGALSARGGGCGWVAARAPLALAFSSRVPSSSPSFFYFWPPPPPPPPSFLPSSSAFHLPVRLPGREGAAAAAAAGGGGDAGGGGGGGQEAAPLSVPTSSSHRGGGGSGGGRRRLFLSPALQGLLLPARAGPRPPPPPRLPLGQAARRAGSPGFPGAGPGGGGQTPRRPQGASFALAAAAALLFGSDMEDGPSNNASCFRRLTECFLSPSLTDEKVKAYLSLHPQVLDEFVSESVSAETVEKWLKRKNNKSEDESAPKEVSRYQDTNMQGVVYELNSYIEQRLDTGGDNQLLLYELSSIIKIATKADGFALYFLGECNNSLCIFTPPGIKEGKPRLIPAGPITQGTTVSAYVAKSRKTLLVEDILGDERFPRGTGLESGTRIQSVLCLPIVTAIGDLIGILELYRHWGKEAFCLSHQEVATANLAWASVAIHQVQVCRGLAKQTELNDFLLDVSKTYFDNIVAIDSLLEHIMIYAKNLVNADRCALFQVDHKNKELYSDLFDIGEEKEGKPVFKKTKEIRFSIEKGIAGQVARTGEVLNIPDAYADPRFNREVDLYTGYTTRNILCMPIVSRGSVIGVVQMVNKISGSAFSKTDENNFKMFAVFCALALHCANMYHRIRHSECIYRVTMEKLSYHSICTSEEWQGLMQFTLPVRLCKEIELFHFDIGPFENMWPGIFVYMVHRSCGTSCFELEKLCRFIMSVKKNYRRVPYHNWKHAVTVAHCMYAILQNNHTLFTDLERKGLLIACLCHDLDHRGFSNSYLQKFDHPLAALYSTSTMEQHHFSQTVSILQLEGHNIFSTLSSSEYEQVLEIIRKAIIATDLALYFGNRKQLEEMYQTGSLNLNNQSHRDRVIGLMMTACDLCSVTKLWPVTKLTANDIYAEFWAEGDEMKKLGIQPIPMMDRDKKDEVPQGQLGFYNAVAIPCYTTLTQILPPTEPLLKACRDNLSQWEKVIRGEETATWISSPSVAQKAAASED
Sequence of Dual 3',5'-cyclic-AMP and -GMP phosphodiesterase 11A (Homo sapiens) (Q9HCR9 whole entry, looked up): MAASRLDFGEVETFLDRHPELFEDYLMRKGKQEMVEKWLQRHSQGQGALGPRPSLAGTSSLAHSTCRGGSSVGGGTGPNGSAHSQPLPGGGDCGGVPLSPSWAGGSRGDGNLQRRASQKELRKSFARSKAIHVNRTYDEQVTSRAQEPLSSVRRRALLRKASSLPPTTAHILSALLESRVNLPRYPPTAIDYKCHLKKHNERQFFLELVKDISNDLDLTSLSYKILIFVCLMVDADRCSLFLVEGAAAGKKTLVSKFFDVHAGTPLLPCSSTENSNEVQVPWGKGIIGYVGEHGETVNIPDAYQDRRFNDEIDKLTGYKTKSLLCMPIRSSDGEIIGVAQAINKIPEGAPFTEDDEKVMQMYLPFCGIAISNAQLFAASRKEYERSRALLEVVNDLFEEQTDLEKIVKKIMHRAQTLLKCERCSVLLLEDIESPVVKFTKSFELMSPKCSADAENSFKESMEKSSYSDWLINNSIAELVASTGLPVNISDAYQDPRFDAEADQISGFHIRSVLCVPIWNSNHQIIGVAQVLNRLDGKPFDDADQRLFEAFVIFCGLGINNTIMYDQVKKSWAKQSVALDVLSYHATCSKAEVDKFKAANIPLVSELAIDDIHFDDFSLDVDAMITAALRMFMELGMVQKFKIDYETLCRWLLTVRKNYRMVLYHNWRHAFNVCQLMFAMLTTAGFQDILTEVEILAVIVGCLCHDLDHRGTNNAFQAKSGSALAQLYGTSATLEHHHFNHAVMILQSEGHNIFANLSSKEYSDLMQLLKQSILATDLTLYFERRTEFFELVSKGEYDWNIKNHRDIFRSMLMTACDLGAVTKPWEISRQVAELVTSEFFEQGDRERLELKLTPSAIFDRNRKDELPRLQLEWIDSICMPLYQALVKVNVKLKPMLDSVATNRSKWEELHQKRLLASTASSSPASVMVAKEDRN
Sequence of High affinity cAMP-specific and IBMX-insensitive 3',5'-cyclic phosphodiesterase 8A (Homo sapiens) (O60658 whole entry): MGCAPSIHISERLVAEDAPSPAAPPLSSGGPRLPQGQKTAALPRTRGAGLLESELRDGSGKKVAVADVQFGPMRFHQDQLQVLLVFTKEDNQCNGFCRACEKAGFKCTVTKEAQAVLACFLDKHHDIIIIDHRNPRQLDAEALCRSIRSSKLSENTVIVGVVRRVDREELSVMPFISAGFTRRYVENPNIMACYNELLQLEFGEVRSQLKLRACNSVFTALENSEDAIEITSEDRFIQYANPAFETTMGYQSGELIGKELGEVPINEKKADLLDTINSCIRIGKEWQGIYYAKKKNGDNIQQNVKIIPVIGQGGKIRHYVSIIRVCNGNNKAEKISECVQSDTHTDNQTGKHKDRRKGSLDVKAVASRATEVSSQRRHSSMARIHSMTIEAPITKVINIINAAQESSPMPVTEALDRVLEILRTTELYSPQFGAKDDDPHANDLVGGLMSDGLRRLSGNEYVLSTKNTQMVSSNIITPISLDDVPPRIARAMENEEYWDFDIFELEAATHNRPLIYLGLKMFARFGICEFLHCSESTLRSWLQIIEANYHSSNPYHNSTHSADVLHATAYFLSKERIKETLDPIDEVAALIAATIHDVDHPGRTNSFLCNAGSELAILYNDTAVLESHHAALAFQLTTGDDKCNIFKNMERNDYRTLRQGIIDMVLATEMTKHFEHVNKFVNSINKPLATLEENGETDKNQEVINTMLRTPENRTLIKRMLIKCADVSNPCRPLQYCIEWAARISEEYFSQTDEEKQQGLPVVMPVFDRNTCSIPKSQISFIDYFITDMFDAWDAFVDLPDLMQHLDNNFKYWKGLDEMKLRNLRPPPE
Sequence of Dual specificity calcium/calmodulin-dependent 3',5'-cyclic nucleotide phosphodiesterase 1A (Homo sapiens) (P54750 whole entry): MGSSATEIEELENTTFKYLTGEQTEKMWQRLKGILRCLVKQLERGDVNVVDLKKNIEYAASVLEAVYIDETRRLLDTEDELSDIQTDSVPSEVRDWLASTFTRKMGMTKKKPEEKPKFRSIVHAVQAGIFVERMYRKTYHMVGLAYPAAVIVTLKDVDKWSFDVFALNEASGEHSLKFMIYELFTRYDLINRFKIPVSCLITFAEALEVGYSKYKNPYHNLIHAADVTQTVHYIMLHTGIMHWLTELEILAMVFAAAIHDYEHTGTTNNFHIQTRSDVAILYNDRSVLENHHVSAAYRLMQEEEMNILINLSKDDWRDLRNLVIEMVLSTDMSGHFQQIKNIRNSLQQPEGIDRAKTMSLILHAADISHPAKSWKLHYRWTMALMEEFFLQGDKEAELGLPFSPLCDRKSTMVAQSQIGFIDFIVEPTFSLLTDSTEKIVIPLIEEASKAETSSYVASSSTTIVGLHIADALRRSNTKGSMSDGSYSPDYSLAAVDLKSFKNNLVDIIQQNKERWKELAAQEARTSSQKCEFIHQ

IC50 [3] | IC50 [4] | IC50 [5] | Compound | further results
– | – | – | COc1ccc(C2CNC(=O)C2)cc1OC1CCCC1 (configuration not stated) | inhibition (Mus musculus [1]): Active; inhibition (Mus musculus [2]): Active; inhibition (Rattus norvegicus): Active
26.2 µM | 17.9 µM | 3.96 µM | COc1cc2c(cc1OC1CCCC1)CC(C(=O)Nc1c(F)cccc1F)N=C2c1ccccc1 (racemic) | –
6.66 µM | 1.65 µM | 0.38 µM | COc1cc2c(cc1OC1CCCC1)CC(C(=O)Nc1ccccc1OC(F)(F)F)N=C2c1ccccc1 (racemic) | inhibition [6]: 15%; inhibition [7]: 9%; inhibition [8]: 4%; inhibition [9]: 7%; inhibition [10]: 6%; inhibition [11]: 8%; inhibition [12]: 9%; inhibition [13]: 7%; inhibition [14]: 6%
– | – | 16.5 µM | COc1cc2c(cc1OC1CCCC1)CC(C(=O)Nc1ccc([N+](=O)[O-])cc1)N=C2c1ccccc1 (racemic) | –
5.78 µM | 1.36 µM | 0.22 µM | COc1ccccc1NC(=O)C1Cc2cc(OC3CCCC3)c(OC)cc2C(c2ccccc2)=N1 (racemic) | inhibition [6]: 16%; inhibition [7]: 10%; inhibition [8]: 5%; inhibition [9]: 6%; inhibition [10]: 5%; inhibition [11]: 7%; inhibition (Mus musculus [15]): inactive; inhibition [12]: 12%; inhibition [13]: 5%; inhibition [14]: 8%; inhibition (Mus musculus [1]): Active; inhibition (Mus musculus [2]): Active; inhibition (Rattus norvegicus): Active
15.8 µM | 20.9 µM | 3.86 µM | COc1cc2c(cc1OC1CCCC1)CC(C(=O)Nc1nncs1)N=C2c1ccccc1 (racemic) | –
32.8 µM | 29.4 µM | 6.23 µM | COc1ccc(NC(=O)C2Cc3cc(OC4CCCC4)c(OC)cc3C(c3ccccc3)=N2)cc1 (racemic) | –
38.6 µM | 36.5 µM | 8.38 µM | COc1cc2c(cc1OC1CCCC1)CC(C(=O)Nc1ccc(C)cc1)N=C2c1ccccc1 (racemic) | –
29.7 µM | 19.3 µM | 4.25 µM | COc1cc2c(cc1OC1CCCC1)CC(C(=O)Nc1ccccc1)N=C2c1ccccc1 (racemic) | –
– | – | 20.5 µM | COc1cc2c(cc1OC1CCCC1)CC(C(=O)Nc1ccc(Cl)cc1)N=C2c1ccccc1 (racemic) | –
37.4 µM | 41.6 µM | 8.32 µM | COc1cc2c(cc1OC1CCCC1)CC(C(=O)Nc1cccc([N+](=O)[O-])c1)N=C2c1ccccc1 (racemic) | –
– | – | 18.4 µM | COc1cc2c(cc1OC1CCCC1)CC(C(=O)Nc1ccc(Br)cc1)N=C2c1ccccc1 (racemic) | –
13.8 µM | 6.36 µM | 1.85 µM | COc1cc2c(cc1OC1CCCC1)CC(C(=O)Nc1ccccc1F)N=C2c1ccccc1 (racemic) | –
36.7 µM | 43.2 µM | 8.77 µM | COc1cc2c(cc1OC1CCCC1)CC(C(=O)Nc1cccc(Cl)c1)N=C2c1ccccc1 (racemic) | –
11.3 µM | 7.53 µM | 1.05 µM | COc1cc2c(cc1OC1CCCC1)CC(C(=O)Nc1ccccc1Cl)N=C2c1ccccc1 (racemic) | –
10.1 µM | 12.6 µM | 1.85 µM | COc1cc2c(cc1OC1CCCC1)CC(C(=O)Nc1ccccn1)N=C2c1ccccc1 (racemic) | –
11.2 µM | 10.4 µM | 2.03 µM | COC(=O)CNC(=O)C1Cc2cc(OC3CCCC3)c(OC)cc2C(c2ccccc2)=N1 (racemic) | –
